Our source for the IC50 values is patent US8129371B2, “Thienopyrimidine and pyrazolopyrimidine compounds and their use as mTOR kinase and PI3 kinase inhibitors” (Wyeth LLC, priority 2007, dated 2012).

Like-named read-outs stand apart in the source and are kept apart here.

One assay concerns prostate line LNCap. Nature of the assay: In vitro cell culture growth assay (MTS), LNCap. The class given is cell-based. To be noted: Homo sapiens, LNCaP, 72 h, LNCap cells, three days after drug treatment. Put shortly:
(§1)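 Growth is reported as percent of vehicle-treated control grown in the same plate, with viability determined by metabolic conversion of MTS dye and absorbance read at 490 nm. Compounds were applied one day after plating and left for three days.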

For a further assay, the target named is T1, Human mTOR (FLAG-TOR) (Homo sapiens, UniProt P42345).
T1 construct: FLAG
Put plainly: Human mTOR kinase assay with purified enzyme, DELFIA format. In kind it is biochemical. In a few lines:
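Purified FLAG-mTOR in HEPES pH 7.4 buffer with 10 mM MnCl2 was preincubated with inhibitor and reacted 2 h at room temperature with His6-S6K substrate, then stopped with EDTA/EGTA. Phospho-T389 S6K detected by DELFIA with Eu-labelled antibody (40 ng/mL) after plate capture; inhibition computed from signal.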

Assay [1] concerns the target T2, PI3K (Homo sapiens, UniProt P42336).
T2 construct: PI3 Kinase α IC50; other: PI3 Kinase α; other: PI3 Kinase α isoform, fluorescence polarization
Nature of the assay: Fluorescence polarization assay for PI3K. In kind it is biochemical. The settings on record: read-out: PI3 Kinase α IC50. Put shortly: (§2)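 PI3K was preincubated with compound (final DMSO 1%), and the reaction was started with PIP2/ATP substrate and run 30–60 min. It was stopped with a detector mix giving 10 nM red probe and 70 nM GST-GRP.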

In assay [2] the target is T3, PI3K (Homo sapiens, UniProt P48736).
T3 construct: PI3 Kinase γ IC50; other: PI3 Kinase γ; other: PI3 Kinase γ isoform, fluorescence polarization
Nature of the assay: Fluorescence polarization assay for PI3K. To be noted: read-out: PI3 Kinase γ IC50. In kind it is biochemical. In a few lines: as §2
For orientation: Fluorescence polarisation rises when a labelled molecule tumbles more slowly, as on binding a larger partner.

Another assay deals with breast line MDA468. Nature of the assay: In vitro cell culture growth assay (MTS), MDA468. In kind it is cell-based. The settings on record: Homo sapiens, 72 h, MDA468 cells, three days after drug treatment. Put shortly: as §1
The mark [3] stands for this setting: purified human mTOR enzyme, DELFIA format.
The mark [4] stands for this setting: PI3 Kinase α isoform, fluorescence polarization.
Where [5] appears, read: PI3 Kinase γ isoform, fluorescence polarization.

T2 sequence (P42336 whole entry, canonical isoform): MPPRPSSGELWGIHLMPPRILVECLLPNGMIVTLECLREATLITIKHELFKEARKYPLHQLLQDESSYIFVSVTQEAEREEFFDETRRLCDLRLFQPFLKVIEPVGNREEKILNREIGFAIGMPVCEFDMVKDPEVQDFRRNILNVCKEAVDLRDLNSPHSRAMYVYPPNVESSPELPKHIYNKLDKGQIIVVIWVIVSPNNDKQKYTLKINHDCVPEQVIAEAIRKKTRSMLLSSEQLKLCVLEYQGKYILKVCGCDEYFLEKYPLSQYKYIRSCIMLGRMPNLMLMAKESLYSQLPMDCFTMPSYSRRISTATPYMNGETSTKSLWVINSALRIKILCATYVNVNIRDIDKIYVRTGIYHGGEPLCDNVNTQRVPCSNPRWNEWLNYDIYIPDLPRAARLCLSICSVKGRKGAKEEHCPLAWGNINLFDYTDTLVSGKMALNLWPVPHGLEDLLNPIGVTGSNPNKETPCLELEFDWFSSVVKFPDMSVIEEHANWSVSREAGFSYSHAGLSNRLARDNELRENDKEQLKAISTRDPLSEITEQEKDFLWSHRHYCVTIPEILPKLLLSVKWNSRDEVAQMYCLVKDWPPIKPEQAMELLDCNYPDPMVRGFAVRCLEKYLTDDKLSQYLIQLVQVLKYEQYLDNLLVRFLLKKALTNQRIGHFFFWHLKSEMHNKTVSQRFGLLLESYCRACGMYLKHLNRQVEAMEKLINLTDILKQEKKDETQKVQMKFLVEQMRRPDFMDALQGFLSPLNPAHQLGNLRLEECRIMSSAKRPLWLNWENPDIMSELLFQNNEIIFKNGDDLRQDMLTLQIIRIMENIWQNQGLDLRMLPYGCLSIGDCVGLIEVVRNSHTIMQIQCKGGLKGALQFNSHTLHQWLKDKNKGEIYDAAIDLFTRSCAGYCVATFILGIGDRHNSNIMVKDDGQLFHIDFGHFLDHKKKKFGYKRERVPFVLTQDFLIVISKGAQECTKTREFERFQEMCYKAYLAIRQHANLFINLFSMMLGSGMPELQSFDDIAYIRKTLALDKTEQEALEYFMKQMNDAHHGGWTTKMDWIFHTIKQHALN
T3 sequence (P48736 whole entry, canonical isoform): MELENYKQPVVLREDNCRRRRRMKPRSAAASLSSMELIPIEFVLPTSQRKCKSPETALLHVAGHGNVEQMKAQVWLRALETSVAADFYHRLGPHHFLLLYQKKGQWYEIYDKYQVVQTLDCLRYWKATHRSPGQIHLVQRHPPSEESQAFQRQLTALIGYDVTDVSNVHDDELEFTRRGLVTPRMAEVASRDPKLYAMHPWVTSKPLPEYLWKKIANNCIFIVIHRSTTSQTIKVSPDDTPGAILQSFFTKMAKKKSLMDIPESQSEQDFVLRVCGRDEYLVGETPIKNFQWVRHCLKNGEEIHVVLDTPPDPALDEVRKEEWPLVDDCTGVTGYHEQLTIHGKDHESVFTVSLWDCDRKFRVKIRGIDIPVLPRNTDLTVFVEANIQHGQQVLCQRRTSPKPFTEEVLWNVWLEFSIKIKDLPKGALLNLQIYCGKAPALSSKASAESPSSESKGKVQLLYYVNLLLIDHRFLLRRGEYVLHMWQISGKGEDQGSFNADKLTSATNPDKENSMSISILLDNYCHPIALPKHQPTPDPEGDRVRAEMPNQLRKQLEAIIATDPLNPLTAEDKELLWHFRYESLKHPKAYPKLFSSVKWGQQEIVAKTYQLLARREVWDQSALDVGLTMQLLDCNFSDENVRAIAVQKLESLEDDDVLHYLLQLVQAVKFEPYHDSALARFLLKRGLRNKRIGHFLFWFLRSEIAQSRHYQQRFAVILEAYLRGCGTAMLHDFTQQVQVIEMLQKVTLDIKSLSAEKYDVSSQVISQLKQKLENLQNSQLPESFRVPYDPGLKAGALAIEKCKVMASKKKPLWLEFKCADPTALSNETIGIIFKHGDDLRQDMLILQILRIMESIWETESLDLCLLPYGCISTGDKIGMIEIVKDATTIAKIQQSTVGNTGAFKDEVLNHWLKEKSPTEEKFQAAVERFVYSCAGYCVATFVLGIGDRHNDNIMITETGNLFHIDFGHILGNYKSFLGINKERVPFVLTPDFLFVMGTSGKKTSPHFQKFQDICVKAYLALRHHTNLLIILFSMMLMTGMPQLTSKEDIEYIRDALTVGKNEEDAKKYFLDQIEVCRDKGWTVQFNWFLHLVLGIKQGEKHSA

For the molecule `O=C(NCCF)Nc1ccc(-c2nc(N3CC4CCC(C3)O4)c3cnn(CC(F)(F)F)c3n2)cc1` [Example 6, 1-(2-fluoroethyl)-3-{4-[4-(8-oxa-3-azabicyclo[3.2.1]oct-3-yl)-1-(2,2,2-trifluoroethyl)-1H-pyrazolo[3,4-d]pyrimidin-6-yl]phenyl}urea], the half-maximal inhibitory concentration (IC50) with prostate line LNCap was < 27 nM; on Human mTOR (FLAG-TOR), 0.22 nM; at PI3K [1] (PI3 Kinase α), 2750 nM; on PI3K [2] (PI3 Kinase γ) it was 6.57 µM; in the assay on breast line MDA468 it was < 27 nM.

With `CC(C)(C)n1ncc2c(N3CC4CCC(C3)O4)nc(-c3ccc(NC(=O)NCCO)cc3)nc21` [Example 97], the concentration for half-maximal inhibition (IC50) in the assay with prostate line LNCap amounted to 20 nM; against Human mTOR (FLAG-TOR), 0.34 nM; on PI3K [1] (PI3 Kinase α), 282 nM; on PI3K [2] (PI3 Kinase γ), 9.5 µM; with breast line MDA468 it was 180 nM.

Regarding `CNC(=O)Nc1ccc(-c2nc(N3CC4CCC(C3)O4)c3cnn(C(C)C)c3n2)cc1` [Example 139, 1-{4-[1-isopropyl-4-(8-oxa-3-azabicyclo[3.2.1]oct-3-yl)-1H-pyrazolo[3,4-d]pyrimidin-6-yl]phenyl}-3-methylurea], the IC50 was 5 nM with prostate line LNCap; 0.115 nM against Human mTOR (FLAG-TOR); 234 nM at PI3K [1] (PI3 Kinase α); 6.17 µM on PI3K [2] (PI3 Kinase γ); 50 nM with breast line MDA468.

In the case of `CCOC(=O)N1CCC(n2ncc3c(N4CC5CCC(C4)O5)nc(-c4ccc(NC(=O)NC5CCN(C(=O)OC(C)(C)C)CC5)cc4)nc32)CC1` [Example 37, ethyl 4-{6-[4-({[1-(tert-butoxycarbonyl)piperidin-4-yl]carbamoyl}amino)phenyl]-4-(8-oxa-3-azabicyclo[3.2.1]oct-3-yl)-1H-pyrazolo[3,4-d]pyrimidin-1-yl}piperidine-1-carboxylate], the concentration for half-maximal inhibition (IC50) in the assay on prostate line LNCap was 1000 nM; against Human mTOR (FLAG-TOR), 37 nM; on PI3K [1] (PI3 Kinase α), 8620 nM; on PI3K [2] (PI3 Kinase γ), 7.39 µM; in the assay on breast line MDA468, > 60000 nM.

For the molecule `CN(C)CCNC(=O)Nc1ccc(-c2nc(N3CC4CCC(C3)O4)c3cnn(C)c3n2)cc1` [Example 58, 1-[2-(dimethylamino)ethyl]-3-{4-[1-methyl-4-(8-oxa-3-azabicyclo[3.2.1]oct-3-yl)-1H-pyrazolo[3,4-d]pyrimidin-6-yl]phenyl}urea], the IC50 in the assay with prostate line LNCap turned out to be 700 nM; against Human mTOR (FLAG-TOR), 99 nM; at PI3K [1] (PI3 Kinase α), 307 nM; on PI3K [2] (PI3 Kinase γ) it was 1.12 µM; in the assay on breast line MDA468, 2800 nM.

Regarding `CN(C)CCn1ncc2c(N3CC4CCC(C3)O4)nc(-c3ccc(NC(=O)Nc4cccnc4)cc3)nc21` [Example 157, 1-(4-{1-[2-(dimethylamino)ethyl]-4-(8-oxa-3-azabicyclo[3.2.1]oct-3-yl)-1H-pyrazolo[3,4-d]pyrimidin-6-yl}phenyl)-3-pyridin-3-ylurea], the IC50 was found to be 50 nM in the assay on prostate line LNCap; 2.7 nM on Human mTOR (FLAG-TOR); 235 nM on PI3K [1] (PI3 Kinase α); 3.12 µM at PI3K [2] (PI3 Kinase γ); 220 nM with breast line MDA468.

For `O=C(NCCO)Nc1ccc(-c2nc(N3CC4CCC(C3)O4)c3cnn(CCO)c3n2)cc1` [Example 196, 1-(2-hydroxyethyl)-3-{4-[1-(2-hydroxyethyl)-4-(8-oxa-3-azabicyclo[3.2.1]oct-3-yl)-1H-pyrazolo[3,4-d]pyrimidin-6-yl]phenyl}urea], the IC50 in the assay on prostate line LNCap was 10000 nM; on Human mTOR (FLAG-TOR), 2.2 nM; on PI3K [1] (PI3 Kinase α), 607 nM; at PI3K [2] (PI3 Kinase γ), 7.33 µM; in the assay on breast line MDA468 it was 13000 nM.

Take `Cn1ncc2c(N3CC4COC(C3)O4)nc(-c3ccc(NC(=O)Nc4cccnc4)cc3)nc21` (stereo not drawn) [Example 391, 1-{4-[4-(6,8-dioxa-3-azabicyclo[3.2.1]oct-3-yl)-1-methyl-1H-pyrazolo[3,4-d]pyrimidin-6-yl]phenyl}-3-pyridin-3-ylurea]: the IC50 worked out at 185 nM in the assay with prostate line LNCap; 4.2 nM at Human mTOR (FLAG-TOR) (setting [3]); 101 nM on PI3K [1] (setting [4]); 0.919 µM at PI3K [2] (setting [5]); 580 nM with breast line MDA468.

Turning to `N#CCCn1ncc2c(N3CC4CCC(C3)O4)nc(-c3ccc(NC(=O)Nc4cccnc4)cc3)nc21` [Example 216, 1-{4-[1-(2-cyanoethyl)-4-(8-oxa-3-azabicyclo[3.2.1]oct-3-yl)-1H-pyrazolo[3,4-d]pyrimidin-6-yl]phenyl}-3-pyridin-3-ylurea], the IC50 with prostate line LNCap was 4 nM; at Human mTOR (FLAG-TOR), 0.255 nM; on PI3K [1] (PI3 Kinase α), 124 nM; at PI3K [2] (PI3 Kinase γ) it was 3.32 µM; in the assay on breast line MDA468, 55 nM.

For the molecule `O=C(Nc1ccc(-c2nc(N3C4CCC3COC4)c3cnn(CC(F)(F)F)c3n2)cc1)OCCO` [Example 266, 2-hydroxyethyl {4-[4-(3-oxa-8-azabicyclo[3.2.1]oct-8-yl)-1-(2,2,2-trifluoroethyl)-1H-pyrazolo[3,4-d]pyrimidin-6-yl]phenyl}carbamate], the IC50 with prostate line LNCap is 27 nM; on Human mTOR (FLAG-TOR), 0.615 nM; at PI3K [1] (PI3 Kinase α), 2720 nM; at PI3K [2] (PI3 Kinase γ), > 10 µM; in the assay on breast line MDA468, 180 nM.

On to `O=C(Nc1ccncc1)Nc1ccc(-c2nc(N3CC4CCC(C3)O4)c3sccc3n2)cc1` [Example 413, 1-{4-[4-(8-oxa-3-azabicyclo[3.2.1]oct-3-yl)thieno[3,2-d]pyrimidin-2-yl]phenyl}-3-pyridin-4-ylurea], for which the IC50 in the assay on prostate line LNCap was 10 nM; at Human mTOR (FLAG-TOR) (setting [3]) it was 0.39 nM; at PI3K [1] (setting [4]), 80 nM; on PI3K [2] (setting [5]) it was 1.38 µM; with breast line MDA468, 48 nM.

Consider `COC(=O)N1CCC(n2ncc3c(N4CC5CCC(C4)O5)nc(-c4ccc(NC(=O)OCCO)cc4)nc32)CC1` [Example 112, methyl 4-[6-(4-{[(2-hydroxyethoxy)carbonyl]amino}phenyl)-4-(8-oxa-3-azabicyclo[3.2.1]oct-3-yl)-1H-pyrazolo[3,4-d]pyrimidin-1-yl]piperidine-1-carboxylate], for which the IC50 is 40 nM in the assay with prostate line LNCap; 0.75 nM on Human mTOR (FLAG-TOR); 1260 nM on PI3K [1] (PI3 Kinase α); > 10 µM on PI3K [2] (PI3 Kinase γ); 1050 nM in the assay on breast line MDA468.

For the molecule `O=C(Nc1ccc(-c2nc(N3CC4CCC(C3)O4)c3cnn(CCF)c3n2)cc1)OCCO` [Example 245, 2-hydroxyethyl {4-[1-(2-fluoroethyl)-4-(8-oxa-3-azabicyclo[3.2.1]oct-3-yl)-1H-pyrazolo[3,4-d]pyrimidin-6-yl]phenyl}carbamate], the IC50 is 130 nM in the assay with prostate line LNCap; 1.2 nM at Human mTOR (FLAG-TOR); 2900 nM on PI3K [1] (PI3 Kinase α); > 10 µM on PI3K [2] (PI3 Kinase γ); 900 nM in the assay with breast line MDA468.

On to `O=C(Nc1ccc(-c2nc(N3CC4CCC(C3)O4)c3cnn(C4CCCCO4)c3n2)cc1)Nc1cccnc1` (stereo not drawn) [Example 90, 1-{4-[4-(8-oxa-3-azabicyclo[3.2.1]oct-3-yl)-1-(tetrahydro-2H-pyran-2-yl)-1H-pyrazolo[3,4-d]pyrimidin-6-yl]phenyl}-3-pyridin-3-ylurea], for which the IC50 in the assay on prostate line LNCap is 12 nM; against Human mTOR (FLAG-TOR) it was 0.39 nM; on PI3K [1] (PI3 Kinase α), 412 nM; at PI3K [2] (PI3 Kinase γ), 4.33 µM; in the assay with breast line MDA468 it was 60 nM.

Turning to `CC(C)OC(=O)N1CCC(n2ncc3c(N4CC5CCC(C4)O5)nc(-c4ccc(NC(=O)Nc5ccccc5)cc4)nc32)CC1` [Example 71, isopropyl 4-[4-(8-oxa-3-azabicyclo[3.2.1]oct-3-yl)-6-{4-[(phenylcarbamoyl)amino]phenyl}-1H-pyrazolo[3,4-d]pyrimidin-1-yl]piperidine-1-carboxylate], the IC50 in the assay with prostate line LNCap worked out at 20 nM; against Human mTOR (FLAG-TOR), 0.62 nM; on PI3K [1] (PI3 Kinase α), 594 nM; at PI3K [2] (PI3 Kinase γ), 4.91 µM; with breast line MDA468, 170 nM.

A word on the IC50: it is the concentration needed to halve the response being measured.
